In patent US20250304644A1, “PEPTIDES TRIPLE AGONISTS OF GIP, GLP-1 AND GLP-2” (BAINAN BIOTECH APS, priority 2021, published 2025):
Where “and” joins values, the source holds several entries; their conditions need not be identical. Equal entries are not always repeated. Where two headings read alike, the source gives them in different places. *1 amine or outer side, *2 acyl side, *3 side chain or, on linkers, in order; H or OH if unused. Where a SMILES comes first, the peptide text is derived from it. Side-chain parts run from the residue outwards. [ ]: non-standard residue; d: D form. The star is where a group is joined. C18 diacid = O=C(O)CCCCCCCCCCCCCCCCC(=O)*; γGlu = O=C(O)[C@H](CCC(=O)[*:2])N[*:1]; AEEA = NCCOCCOCC(=O)O; Aib = CC(C)(N)C(=O)O

Experiments:
Assay type in all cases: cell-based
[1] = molecular target: human glucagon receptor (GCGR) (Homo sapiens, UniProt P47871); assay: Gs activation measured as cAMP accumulation on human glucagon receptor (FIG. 1 radar plot); conditions: read-out: −p Log EC50 on human glucagon receptor (GCGR) (converted)
Excerpt: Here, the compounds 20, 21, 22, 28, 30, 31,32, 33, 34, 35 are shown in terms of their potencies in Gs activation, measured as CAMP accumulation, depicted in a radar plot. The numbers refer to −p Log EC50 values. […] The outer rings correspond to higher potencies, the inner rings correspond to lower potencies.

human SNP-tagged GLP-2R = molecular target: T1, human SNP-tagged GLP-2R (Homo sapiens, UniProt O95838); assay: Receptor internalization assay, HEK293A cells expressing human SNAP-tagged GLP-2R; conditions: for Absolute hGLP-2R internalization (AUC): AUC of sigmoid curves up to 1 μM, 60 minutes at 37° C.; for Relative hGLP-2R internalization (%): relative to native ligand = 100
T1 construct: expressed in transfected cells; host or cells: HEK293A
T1 sequence (O95838 1-553): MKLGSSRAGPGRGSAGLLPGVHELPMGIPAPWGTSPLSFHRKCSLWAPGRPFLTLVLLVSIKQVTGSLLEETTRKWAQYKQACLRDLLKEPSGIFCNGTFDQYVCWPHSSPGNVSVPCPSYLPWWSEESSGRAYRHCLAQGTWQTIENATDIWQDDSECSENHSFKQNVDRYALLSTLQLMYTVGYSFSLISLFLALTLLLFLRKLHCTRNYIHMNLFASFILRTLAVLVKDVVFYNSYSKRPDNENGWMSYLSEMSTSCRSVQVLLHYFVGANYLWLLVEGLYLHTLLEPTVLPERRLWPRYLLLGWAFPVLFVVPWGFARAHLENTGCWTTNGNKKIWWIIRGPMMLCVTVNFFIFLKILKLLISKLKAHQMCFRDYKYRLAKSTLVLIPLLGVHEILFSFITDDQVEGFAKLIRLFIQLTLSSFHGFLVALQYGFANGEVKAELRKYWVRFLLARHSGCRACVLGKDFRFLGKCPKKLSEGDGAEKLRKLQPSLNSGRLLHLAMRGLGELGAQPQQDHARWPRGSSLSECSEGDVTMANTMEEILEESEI

human GIPR = molecular target: T2, human GIPR (Homo sapiens, UniProt P48546); assay: cAMP assay (HitHunter) in transiently transfected COS-7 cells expressing human GIPR
T2 construct: host or cells: COS-7
T2 sequence (P48546 22-466): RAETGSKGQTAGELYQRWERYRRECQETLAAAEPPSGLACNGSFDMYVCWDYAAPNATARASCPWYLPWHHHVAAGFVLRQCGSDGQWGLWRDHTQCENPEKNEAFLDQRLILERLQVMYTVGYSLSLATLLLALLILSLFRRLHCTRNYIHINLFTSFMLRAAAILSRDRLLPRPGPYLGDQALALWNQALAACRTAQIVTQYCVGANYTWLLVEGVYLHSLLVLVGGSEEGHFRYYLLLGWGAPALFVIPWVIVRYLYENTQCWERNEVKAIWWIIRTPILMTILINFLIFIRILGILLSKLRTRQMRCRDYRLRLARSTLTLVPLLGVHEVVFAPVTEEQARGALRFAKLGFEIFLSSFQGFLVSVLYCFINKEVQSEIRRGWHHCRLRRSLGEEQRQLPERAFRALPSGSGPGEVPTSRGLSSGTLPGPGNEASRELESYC

human SNAP-tagged GLP-1R = molecular target: T3, human SNAP-tagged GLP-1R (Homo sapiens, UniProt P43220); assay: Receptor internalization assay, HEK293A cells expressing human SNAP-tagged GLP-1R; conditions: for Absolute hGLP-1R internalization (AUC): AUC of sigmoid curves up to 1 μM, 60 minutes at 37° C.; for Relative hGLP-1R internalization (%): relative to hGLP-1 = 100
T3 construct: expressed in transfected cells; host or cells: HEK293A

human GLP-2R = molecular target: T4, human GLP-2R (Homo sapiens, UniProt O95838); assay: cAMP assay (HitHunter) in transiently transfected COS-7 cells expressing human GLP-2R
T4 construct: host or cells: COS-7
T4 sequence (O95838 1-553): T1 sequence (O95838 1-553)

human GLP-1R = molecular target: T5, human GLP-1R (Homo sapiens, UniProt P43220); assay: cAMP assay (HitHunter) in transiently transfected COS-7 cells expressing human GLP-1R
T5 construct: host or cells: COS-7

human SNAP-tagged GIPR = molecular target: T6, human SNAP-tagged GIPR (Homo sapiens, UniProt P48546); assay: Receptor internalization assay, HEK293A cells expressing human SNAP-tagged GIPR
T6 construct: host or cells: HEK293A
T6 sequence (P48546 22-466): T2 sequence (P48546 22-466)

T5 sequence (P43220 24-463): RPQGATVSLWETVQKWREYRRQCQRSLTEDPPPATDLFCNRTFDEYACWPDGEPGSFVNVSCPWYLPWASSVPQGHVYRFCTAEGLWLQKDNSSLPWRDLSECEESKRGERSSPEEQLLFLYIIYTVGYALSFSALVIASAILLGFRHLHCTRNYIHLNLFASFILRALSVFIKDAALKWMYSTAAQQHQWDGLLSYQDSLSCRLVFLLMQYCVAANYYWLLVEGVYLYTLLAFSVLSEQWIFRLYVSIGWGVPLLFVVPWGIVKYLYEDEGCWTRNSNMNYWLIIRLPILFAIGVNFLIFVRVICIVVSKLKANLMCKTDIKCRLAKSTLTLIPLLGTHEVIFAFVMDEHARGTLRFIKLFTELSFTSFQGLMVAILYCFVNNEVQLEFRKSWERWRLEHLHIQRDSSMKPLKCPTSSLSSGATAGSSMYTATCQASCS
T3 sequence (P43220 24-463): as above
human glucagon receptor (GCGR), sequence (P47871 26-477): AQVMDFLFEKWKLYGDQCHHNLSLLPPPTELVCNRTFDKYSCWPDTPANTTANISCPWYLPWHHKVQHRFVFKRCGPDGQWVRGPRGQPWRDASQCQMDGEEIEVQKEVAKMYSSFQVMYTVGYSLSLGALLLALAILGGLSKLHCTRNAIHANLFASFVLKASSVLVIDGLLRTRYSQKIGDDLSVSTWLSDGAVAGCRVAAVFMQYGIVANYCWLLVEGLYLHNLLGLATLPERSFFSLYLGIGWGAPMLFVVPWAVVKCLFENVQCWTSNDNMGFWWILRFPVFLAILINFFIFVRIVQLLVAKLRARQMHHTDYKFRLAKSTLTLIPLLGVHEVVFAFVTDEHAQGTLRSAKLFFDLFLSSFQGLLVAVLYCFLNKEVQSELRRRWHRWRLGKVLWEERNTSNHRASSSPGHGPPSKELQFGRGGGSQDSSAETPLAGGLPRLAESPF

CC[C@H](C)[C@H](NC(=O)[C@H](Cc1ccccc1)NC(=O)[C@H](CC(=O)O)NC(=O)[C@H](CCCNC(=N)N)NC(=O)[C@H](C)NC(=O)[C@H](C)NC(=O)[C@H](CC(C)C)NC(=O)[C@H](C)NC(=O)[C@H](CC(=O)O)NC(=O)[C@H](CC(C)C)NC(=O)[C@@H](NC(=O)[C@@H](NC(=O)[C@H](CO)NC(=O)[C@H](Cc1ccc(O)cc1)NC(=O)[C@H](CC(=O)O)NC(=O)[C@H](CO)NC(=O)[C@@H](NC(=O)[C@H](Cc1ccccc1)NC(=O)[C@@H](NC(=O)CNC(=O)[C@H](CC(=O)O)NC(=O)C(C)(C)NC(=O)[C@@H](N)Cc1c[nH]cn1)[C@@H](C)O)[C@@H](C)CC)[C@@H](C)O)[C@@H](C)CC)C(=O)N[C@@H](CC(N)=O)C(=O)N[C@@H](Cc1c[nH]c2ccccc12)C(=O)N[C@@H](CC(C)C)C(=O)N[C@H](C(=O)N[C@@H](CCC(N)=O)C(=O)N[C@H](C(=O)N[C@@H](CCCCN)C(=O)N[C@H](C(=O)N[C@H](C(=O)N[C@@H](CCCCNC(=O)COCCOCCNC(=O)COCCOCCNC(=O)CC[C@H](NC(=O)CCCCCCCCCCCCCCCCC(=O)O)C(=O)O)C(=O)O)[C@@H](C)O)[C@@H](C)CC)[C@@H](C)O)[C@@H](C)CC [Compound 28] (H-H[Aib]DGTFISDYSTILDALAARDFINWLIQTKITK([AEEA-AEEA-γGlu-C18 diacid])-OH; N-terminus assumed)
EC50 [1]: > 100 nM | Absolute hGLP-2R internalization (AUC) (human SNP-tagged GLP-2R): 12.0 | Relative hGLP-2R internalization (%) (human SNP-tagged GLP-2R): 24.8% | Emax (human GIPR; COS-7, normalized to highest concentration of the endogenous ligand, read-out: Efficacy GIPR (Emax)): 119% | Absolute hGLP-1R internalization (AUC) (human SNAP-tagged GLP-1R): 0.96 | Relative hGLP-1R internalization (%) (human SNAP-tagged GLP-1R): 1.14% | Emax (human GLP-2R; COS-7, normalized to highest concentration of the endogenous ligand, read-out: Efficacy GLP-2R (Emax)): 89% | EC50 (human GLP-2R; cAMP, COS-7 cells, human GLP-2R, read-out: EC50 (nM) GLP-2R): 2.2 nM | Emax (human GLP-1R; COS-7, normalized to highest concentration of the endogenous ligand, read-out: Efficacy GLP-1R (Emax)): 102% | EC50 (human GLP-1R; cAMP, COS-7 cells, human GLP-1R, read-out: EC50 (nM) GLP-1R): 3.98 nM | Absolute hGIPR internalization (AUC) (human SNAP-tagged GIPR; AUC of sigmoid curves up to 1 μM, 60 minutes at 37° C.): 21.7 | Relative hGIPR internalization (%) (human SNAP-tagged GIPR; relative to hGIP 1-42 = 100): 58% and 59%

CC[C@H](C)[C@H](NC(=O)[C@H](Cc1ccccc1)NC(=O)[C@H](CC(=O)O)NC(=O)[C@H](CCCNC(=N)N)NC(=O)[C@H](C)NC(=O)[C@H](C)NC(=O)[C@H](CC(C)C)NC(=O)[C@H](CCCCNC(=O)COCCOCCNC(=O)COCCOCCNC(=O)CC[C@H](NC(=O)CCCCCCCCCCCCCCCCC(=O)O)C(=O)O)NC(=O)[C@H](CC(=O)O)NC(=O)[C@H](CC(C)C)NC(=O)[C@@H](NC(=O)[C@@H](NC(=O)[C@H](CO)NC(=O)[C@H](Cc1ccc(O)cc1)NC(=O)[C@H](CC(=O)O)NC(=O)[C@H](CO)NC(=O)[C@@H](NC(=O)[C@H](Cc1ccccc1)NC(=O)[C@@H](NC(=O)CNC(=O)[C@H](CC(=O)O)NC(=O)[C@H](C)NC(=O)[C@@H](N)Cc1c[nH]cn1)[C@@H](C)O)[C@@H](C)CC)[C@@H](C)O)[C@@H](C)CC)C(=O)N[C@@H](CC(N)=O)C(=O)N[C@@H](Cc1c[nH]c2ccccc12)C(=O)N[C@@H](CC(C)C)C(=O)N[C@H](C(=O)N[C@@H](CCC(N)=O)C(=O)N[C@H](C(=O)N[C@@H](CCCCN)C(=O)NCC(=O)N[C@@H](CCCCN)C(=O)N[C@@H](CCCCN)C(=O)O)[C@@H](C)O)[C@@H](C)CC [Compound 30]
EC50 [1]: > 100 nM | Absolute hGLP-2R internalization (AUC) (human SNP-tagged GLP-2R): 22.7 | Relative hGLP-2R internalization (%) (human SNP-tagged GLP-2R): 46.8% | Emax (human GIPR; COS-7, read-out: Efficacy GIPR (Emax)): 98% | Absolute hGLP-1R internalization (AUC) (human SNAP-tagged GLP-1R): 7.3 | Relative hGLP-1R internalization (%) (human SNAP-tagged GLP-1R): 8.6% | Emax (human GLP-2R; COS-7, read-out: Efficacy GLP-2R (Emax)): 73% | Emax (human GLP-1R; COS-7, read-out: Efficacy GLP-1R (Emax)): 93% | Absolute hGIPR internalization (AUC) (human SNAP-tagged GIPR): 21.0 | Relative hGIPR internalization (%) (human SNAP-tagged GIPR): 57%
